What all share (assay): relative viability (nuclei count vs DMSO), 5 days (fraction); higher = more cells survive
Compound in the assay “Carboplatin + Tozasertib”: C1CC(C1)(C(=O)O)C(=O)O.[NH2-].[NH2-].[Pt+2] [Carboplatin] + Cc1cc(Nc2cc(N3CCN(C)CC3)nc(Sc3ccc(NC(=O)C4CC4)cc3)n2)n[nH]1 [Tozasertib] (partner 0.1 µM)
A digest of the protocol:
(§1)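 For relative viability, nuclei counts in treated wells were divided by those in vehicle wells. Lung cancer cell lines had been pin-tool dosed in 1536-well plates the day after seeding and cultured for 5 days, then fixed and stained in one step (final 0.05% Triton X-100, 1% formaldehyde, 1 ug/ml Hoechst) and imaged at 4×. Doses were one drug alone or a fixed anchor-drug dose plus five library-drug doses (not always all listed) in √10 steps, and values are duplicate-plate medians.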

Compound in the assay “MLN4924 + Phenformin”: NS(=O)(=O)OC[C@@H]1C[C@@H](n2ccc3c(N[C@H]4CCc5ccccc54)ncnc32)C[C@@H]1O [MLN4924] + N=C(N)NC(=N)NCCc1ccccc1 [Phenformin] (partner 250 µM)
A digest of the protocol: as §1

Compound in the assay “GSK126 + Linsitinib”: CC[C@H](C)N1C=C(C2=C(C=C(C=C21)C3=CN=C(C=C3)N4CCNCC4)C(=O)NCC5=C(C=C(NC5=O)C)C)C [GSK126] + C[C@]1(O)C[C@@H](c2nc(-c3ccc4ccc(-c5ccccc5)nc4c3)c3c(N)nccn32)C1 [Linsitinib] (partner 1 µM)
A digest of the protocol: as §1

Compound in the assay “Carboplatin + Vorinostat”: C1CC(C1)(C(=O)O)C(=O)O.[NH2-].[NH2-].[Pt+2] [Carboplatin] + O=C(CCCCCCC(=O)Nc1ccccc1)NO [Vorinostat] (partner 1 µM)
A digest of the protocol:
as §1

In the case of HCC-15, the relative viability with Carboplatin + Tozasertib (first compound 0.08 µM) stood at 0.48; in the assay with Carboplatin + Tozasertib (first compound 0.253 µM), 0.553; with Carboplatin + Tozasertib (first compound 0.8 µM), 0.34; with Carboplatin + Tozasertib (first compound 2.53 µM) it was 0.342; in the assay with Carboplatin + Tozasertib (first compound 8 µM), 0.303; in the assay with MLN4924 + Phenformin (first compound 0.04 µM), 0.319. The relative viability with MLN4924 + Phenformin (first compound 0.1265 µM) amounted to 0.191; with MLN4924 + Phenformin (first compound 0.4 µM), 0.145; in the assay with MLN4924 + Phenformin (first compound 1.265 µM) it was 0.0825; in the assay with MLN4924 + Phenformin (first compound 4 µM), 0.0982; with GSK126 + Linsitinib (first compound 0.08 µM), 0.927; in the assay with GSK126 + Linsitinib (first compound 0.253 µM), 0.683. In addition, the relative viability in the assay with GSK126 + Linsitinib (first compound 0.8 µM) stood at 0.891; with GSK126 + Linsitinib (first compound 2.53 µM), 0.957; in the assay with GSK126 + Linsitinib (first compound 8 µM), 0.827; with Carboplatin + Vorinostat (first compound 0.08 µM), 0.923; in the assay with Carboplatin + Vorinostat (first compound 0.253 µM) it was 0.904; with Carboplatin + Vorinostat (first compound 0.8 µM), 0.859. The relative viability with Carboplatin + Vorinostat (first compound 2.53 µM) amounted to 0.743; with Carboplatin + Vorinostat (first compound 8 µM), 0.558.

As for HCC-44, the relative viability was found to be 1.14 in the assay with Carboplatin + Tozasertib (first compound 0.08 µM); 0.949 with Carboplatin + Tozasertib (first compound 0.253 µM); 0.803 with Carboplatin + Tozasertib (first compound 0.8 µM); 0.603 with Carboplatin + Tozasertib (first compound 2.53 µM); 0.517 with Carboplatin + Tozasertib (first compound 8 µM); 0.144 with MLN4924 + Phenformin (first compound 0.04 µM). The relative viability with MLN4924 + Phenformin (first compound 0.1265 µM) worked out at 0.172; in the assay with MLN4924 + Phenformin (first compound 0.4 µM) it was 0.0837; in the assay with MLN4924 + Phenformin (first compound 1.265 µM), 0.0692; with MLN4924 + Phenformin (first compound 4 µM), 0.102; in the assay with GSK126 + Linsitinib (first compound 0.08 µM), 0.681; in the assay with GSK126 + Linsitinib (first compound 0.253 µM), 0.692. Besides, the relative viability in the assay with GSK126 + Linsitinib (first compound 0.8 µM) amounted to 0.659; in the assay with GSK126 + Linsitinib (first compound 2.53 µM) it was 0.7; with GSK126 + Linsitinib (first compound 8 µM), 0.715; with Carboplatin + Vorinostat (first compound 0.08 µM) it was 1.14; with Carboplatin + Vorinostat (first compound 0.253 µM), 1.11; with Carboplatin + Vorinostat (first compound 0.8 µM), 1.03. Also, the relative viability with Carboplatin + Vorinostat (first compound 2.53 µM) turned out to be 0.999; with Carboplatin + Vorinostat (first compound 8 µM), 0.957.

As for HCC-78, the relative viability stood at 0.413 in the assay with Carboplatin + Tozasertib (first compound 0.08 µM); 0.335 in the assay with Carboplatin + Tozasertib (first compound 0.253 µM); 0.431 in the assay with Carboplatin + Tozasertib (first compound 0.8 µM); 0.483 with Carboplatin + Tozasertib (first compound 2.53 µM); 0.465 with Carboplatin + Tozasertib (first compound 8 µM); 0.694 in the assay with MLN4924 + Phenformin (first compound 0.04 µM). Besides, the relative viability turned out to be 0.634 with MLN4924 + Phenformin (first compound 0.1265 µM); 0.888 with MLN4924 + Phenformin (first compound 0.4 µM); 0.219 in the assay with MLN4924 + Phenformin (first compound 1.265 µM); 0.203 with MLN4924 + Phenformin (first compound 4 µM); 0.662 with GSK126 + Linsitinib (first compound 0.08 µM); 0.547 with GSK126 + Linsitinib (first compound 0.253 µM). For the same cell line, the relative viability with GSK126 + Linsitinib (first compound 0.8 µM) turned out to be 0.518; with GSK126 + Linsitinib (first compound 2.53 µM), 0.465; in the assay with GSK126 + Linsitinib (first compound 8 µM), 0.47; with Carboplatin + Vorinostat (first compound 0.08 µM), 0.472; with Carboplatin + Vorinostat (first compound 0.253 µM), 0.403; with Carboplatin + Vorinostat (first compound 0.8 µM), 0.386. Besides, the relative viability with Carboplatin + Vorinostat (first compound 2.53 µM) was determined as 0.378; in the assay with Carboplatin + Vorinostat (first compound 8 µM), 0.431.

For HCC-366, the relative viability was 0.13 in the assay with Carboplatin + Tozasertib (first compound 0.08 µM); 0.139 with Carboplatin + Tozasertib (first compound 0.253 µM); 0.111 with Carboplatin + Tozasertib (first compound 0.8 µM); 0.1 with Carboplatin + Tozasertib (first compound 2.53 µM); 0.0814 with Carboplatin + Tozasertib (first compound 8 µM); 0.612 with MLN4924 + Phenformin (first compound 0.04 µM). The relative viability worked out at 0.634 in the assay with MLN4924 + Phenformin (first compound 0.1265 µM); 0.454 with MLN4924 + Phenformin (first compound 0.4 µM); 0.11 with MLN4924 + Phenformin (first compound 1.265 µM); 0.0866 in the assay with MLN4924 + Phenformin (first compound 4 µM); 0.684 in the assay with GSK126 + Linsitinib (first compound 0.08 µM); 0.634 with GSK126 + Linsitinib (first compound 0.253 µM). The relative viability with GSK126 + Linsitinib (first compound 0.8 µM) turned out to be 0.602; in the assay with GSK126 + Linsitinib (first compound 2.53 µM) it was 0.678; with GSK126 + Linsitinib (first compound 8 µM) it was 0.846; with Carboplatin + Vorinostat (first compound 0.08 µM), 0.451; with Carboplatin + Vorinostat (first compound 0.253 µM) it was 0.311; in the assay with Carboplatin + Vorinostat (first compound 0.8 µM), 0.317. In addition, the relative viability with Carboplatin + Vorinostat (first compound 2.53 µM) worked out at 0.29; with Carboplatin + Vorinostat (first compound 8 µM), 0.114.

Turning to HCC-827, the relative viability with Carboplatin + Tozasertib (first compound 0.08 µM) was determined as 0.441; with Carboplatin + Tozasertib (first compound 0.253 µM), 0.414; with Carboplatin + Tozasertib (first compound 0.8 µM), 0.413; with Carboplatin + Tozasertib (first compound 2.53 µM) it was 0.418; with Carboplatin + Tozasertib (first compound 8 µM) it was 0.397; with MLN4924 + Phenformin (first compound 0.04 µM), 0.453. Besides, the relative viability with MLN4924 + Phenformin (first compound 0.1265 µM) came out at 0.462; in the assay with MLN4924 + Phenformin (first compound 0.4 µM) it was 0.316; in the assay with MLN4924 + Phenformin (first compound 1.265 µM), 0.144; with MLN4924 + Phenformin (first compound 4 µM) it was 0.136; with GSK126 + Linsitinib (first compound 0.08 µM), 1.03; in the assay with GSK126 + Linsitinib (first compound 0.253 µM), 0.965. In addition, the relative viability with GSK126 + Linsitinib (first compound 0.8 µM) amounted to 0.948; with GSK126 + Linsitinib (first compound 2.53 µM) it was 0.875; with GSK126 + Linsitinib (first compound 8 µM), 0.964; with Carboplatin + Vorinostat (first compound 0.08 µM), 1.15; with Carboplatin + Vorinostat (first compound 0.253 µM), 0.9; with Carboplatin + Vorinostat (first compound 0.8 µM) it was 0.768. The figures for the relative viability with Carboplatin + Vorinostat (first compound 2.53 µM) and with Carboplatin + Vorinostat (first compound 8 µM) were 0.765 and 0.713, respectively.

For the cell line HOP-62, the relative viability in the assay with Carboplatin + Tozasertib (first compound 0.08 µM) came out at 0.377; with Carboplatin + Tozasertib (first compound 0.253 µM) it was 0.387; with Carboplatin + Tozasertib (first compound 0.8 µM), 0.378; in the assay with Carboplatin + Tozasertib (first compound 2.53 µM), 0.378; with Carboplatin + Tozasertib (first compound 8 µM), 0.368; in the assay with MLN4924 + Phenformin (first compound 0.04 µM) it was 0.393. In addition, the relative viability in the assay with MLN4924 + Phenformin (first compound 0.1265 µM) is 0.335; with MLN4924 + Phenformin (first compound 0.4 µM), 0.134; in the assay with MLN4924 + Phenformin (first compound 1.265 µM) it was 0.0578; with MLN4924 + Phenformin (first compound 4 µM), 0.0991; with GSK126 + Linsitinib (first compound 0.08 µM), 1.05; with GSK126 + Linsitinib (first compound 0.253 µM), 0.979. In addition, the relative viability in the assay with GSK126 + Linsitinib (first compound 0.8 µM) came to 0.856; with GSK126 + Linsitinib (first compound 2.53 µM) it was 0.926; with GSK126 + Linsitinib (first compound 8 µM), 0.899; with Carboplatin + Vorinostat (first compound 0.08 µM), 0.654; with Carboplatin + Vorinostat (first compound 0.253 µM), 0.662; in the assay with Carboplatin + Vorinostat (first compound 0.8 µM), 0.635. Further, the relative viability in the assay with Carboplatin + Vorinostat (first compound 2.53 µM) was 0.664; in the assay with Carboplatin + Vorinostat (first compound 8 µM) it was 0.542.

In the case of IA-LM, the relative viability with GSK126 + Linsitinib (first compound 0.08 µM) was 0.685; with GSK126 + Linsitinib (first compound 0.253 µM), 0.729; in the assay with GSK126 + Linsitinib (first compound 0.8 µM), 0.737; with GSK126 + Linsitinib (first compound 2.53 µM), 0.365; with GSK126 + Linsitinib (first compound 8 µM), 0.614; with Carboplatin + Vorinostat (first compound 0.08 µM) it was 0.952. In addition, the relative viability with Carboplatin + Vorinostat (first compound 0.253 µM) was found to be 1.05; with Carboplatin + Vorinostat (first compound 0.8 µM) it was 1.05; with Carboplatin + Vorinostat (first compound 2.53 µM) it was 0.913; with Carboplatin + Vorinostat (first compound 8 µM), 0.81.

The record behind these values is the supplement of paper PMC10307832.
